Results on one molecule are retold here after paper PMC11397024, “Strategic Fluorination to Achieve a Potent, Selective, Metabolically Stable, and Orally Bioavailable Inhibitor of CSNK2” (Molecules, 2024).

One data set has as its target T1, CSNK2A2 (Homo sapiens, UniProt P19784).
T1 construct: expressed in transfected cells; host or cells: HEK293
The data set is described as follows: NanoBRET assay CSNK2A2. Type of data set: cell-based. Particulars: HEK293 cells, singlicate, read-out: CSNK2A2 pIC50 (converted). The protocol: Assays were run using a modified version of the previously published protocols. […] A transfection complex of DNA (10 μg/mL) was generated consisting of 9 μg/mL carrier DNA (Promega, Madison, WI, USA) and 1 μg/mL CSNK2A-NLuc fusion DNA in Opti-MEM without serum (Gibco). FuGENE HD (Promega) was added at 30 μL/mL to form a lipid–DNA complex. The solution was then mixed and incubated at room temperature for 20 min. The transfection complex was mixed with a 20× volume of HEK293 cells in DMEM/FBS to arrive at a final concentration of 200,000 cells/mL, and 100 μL/well was added to a 96-well plate that was incubated overnight at 37 °C and 5% CO2. The following day, the medium was removed via aspiration and replaced with 85 μL of Opti-MEM without phenol red. A total of 5 μL per well of 20× NanoBRET Tracer K10 (Promega) at 10 μM for CSNK2A1 or 5 μM for CSNK2A2 in Tracer Dilution Buffer (Promega N291B) was added to all wells, except the “no tracer” control wells. Test compounds (10 mM in DMSO) were diluted 100× in Opti-MEM media to prepare stock solutions and evaluated at 11 concentrations. A total of 10 μL per well of the 10-fold test compound stock solutions (final assay concentration of 0.1% DMSO) were added. […] The plates were read within 30 min on a GloMax Discover luminometer (Promega) equipped with a 450 nm BP filter (donor) and 600 nm LP filter (acceptor) using 0.3 s of integration time. […]
For orientation: Bioluminescence resonance energy transfer reports proximity on the nanometre scale.

A short description of another data set: Multi-dose PK study. The data set is classed as in vivo. To be noted: Balb/c mice, 30 mg/kg p.o. every 12 h; total plasma concentration factored by fu. The method, then:
In the multi-dose PK study, three male Balb/c mice (6–8 weeks old, 20–30 g) were dosed via oral (p.o.) administration of four doses of compound 2 (30 mg/kg) as a 10 mL/kg volume of 3 mg/mL solution in DMSO/PEG-400/Water (v/v/v, 10:30:60) every 12 h. At 2, 6, 12, 14, 24, 26, 36, 38, and 48 h after the first dose, 0.025 mL of blood was collected from the dorsal metatarsal vein at each time point. Each blood sample was transferred into a plastic microcentrifuge tube containing EDTA-K2 anticoagulant and mixed well with the anticoagulant, then placed on ice prior to centrifugation at 4000× g for 5 min at 4 °C to obtain plasma. The samples were stored in a freezer at −75 ± 15 °C prior to analysis. […] The final compound concentration was calculated by multiplying the detected concentration by a dilution factor of four.
Concentrations of the test compound in the plasma samples were determined using a Prominence LC-MS/MS system with a DGU-20A5R(C) degasser, LC-30AD pump, CBM-20A system controller, SIL-20AC HT autosampler; Rack changer II, HALO 90A ES-CN (2.7 μm, 2.1 × 50 mm) column, and AB Sciex Triple Quan 5500 LC/MS/MS instrument. […] After centrifugation at 4 °C and 4000 rpm for 15 min, the supernatant was diluted with ultrapure water at a ratio of 1:2 (v/v, 1:2), then 20 µL of diluted supernatant was injected into the LC/MS/MS system for quantitative analysis. […]

T1 sequence (P19784 whole entry): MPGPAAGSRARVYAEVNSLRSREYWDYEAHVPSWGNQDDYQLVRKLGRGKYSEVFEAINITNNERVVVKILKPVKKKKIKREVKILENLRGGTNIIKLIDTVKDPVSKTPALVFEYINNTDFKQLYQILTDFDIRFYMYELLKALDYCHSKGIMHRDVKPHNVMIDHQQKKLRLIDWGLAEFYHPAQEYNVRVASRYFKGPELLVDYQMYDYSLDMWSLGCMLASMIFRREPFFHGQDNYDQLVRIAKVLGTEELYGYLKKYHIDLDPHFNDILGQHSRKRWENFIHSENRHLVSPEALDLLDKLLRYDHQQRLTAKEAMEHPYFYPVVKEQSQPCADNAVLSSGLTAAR

With `CCC(=O)Nc1cc(Nc2cc(NC3CC3)n3ncc(C#N)c3n2)c(F)cc1N1CCC[C@H](NC)C1` [Compound 2, (S)-N-(5-((3-cyano-7-(cyclopropylamino)pyrazolo[1,5-a]pyrimidin-5-yl)amino)-4-fluoro-2-(3-(methylamino)piperidin-1-yl)phenyl)propionamide], the IC50 on CSNK2A2 is 0.0126 µM. For the same molecule, in the data set “Multi-dose PK study”, the “free plasma Cpeak concentration” value fell in the range of 120 to 190 nM.
